Earlier results as cited in patent US20120034285A1, “Mosquito Net with Dinotefuran and PBO for Killing Mosquitoes, Especially Mosquitoes with Pyrethroid Resistance” (priority 2009, published 2012).

Key:
Anopheles gambiae = details: in vivo
Aedes aegypti = details: in vivo
Culex quinquefasciatus = details: in vivo
[1] = system: mosquito strain VKPR (also termed VKPER) of the An. gambiae species; details: strain with mutation for knockdown-resistance against pyrethroids
mosquitoes = details: in contrast to pyrethroids; also mentioned in JP 10 139604
cockroaches = details: PBO added as an oxidase inhibitor; Dinotefuran injected into the stomach

CN/C(=N/CC1CCOC1)N[N+](=O)[O-] (stereo not drawn) [Dinotefuran]
lethal effect (Anopheles gambiae): lethal effect
lethal effect (Aedes aegypti): lethal effect
lethal effect (Culex quinquefasciatus): lethal effect
lethal effect [1]: lethal effect
mosquito repellent effect (mosquitoes): does not have a mosquito repellent effect
toxicity on cockroaches (cockroaches): increased toxicity
